We go through twelve substances from patent publication US9028845B2, “Chimeric immunomodulatory compounds and methods of using the same-IV” (Dynavax Technologies Corporation, priority 2001, dated 2015).

This series concerns human PBMCs. In words: Human PBMC cytokine response assay (IFN-γ and IFN-α in cell-free medium by ELISA), with or without cPLGA.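 On IFN-α (pg/ml) mean: 20 µg/mL compound for 24 hours.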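 On IFN-γ (pg/ml) mean: 20 µg/mL compound for 24 hours.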 The format is cell-based. The conditions noted are these: for immunomodulatory activity (IFN-γ / IFN-α secretion), in words: used alone (no cPLGA); for IFN-α (pg/ml) mean / IFN-γ (pg/ml) mean: mean of donors 110, 112, 119, 120.
The mark [1] stands for this setting: Table 24, mean of donors 28234-28237.
Where [2] appears, read: mean of donors 28185-28188, Table 15.

Turning to “5′-TCGTCGA-3′-C3-5′-TCGTCGA-3′-C3-5′-TCGTCGA-3′ all phosphorothioate linkages [Compound C-33]”, the IFN-α reads like this: (Table 9, donor 28089) 56 pg/mL; (Table 9, donor 28090) 22 pg/mL; (Table 9, donor 28098) 34 pg/mL; (Table 9, donor 28099) 30 pg/mL; (Table 24, donor 28234) 16 pg/mL; (Table 24, donor 28235) 16 pg/mL. Further, the IFN-α came to 16 pg/mL (Table 24, donor 28236) and 91 pg/mL (Table 24, donor 28237). Besides, the IFN-γ is, setting by setting: (Table 9, donor 28089) 0 pg/mL; (Table 9, donor 28090) 0 pg/mL; (Table 9, donor 28098) 0 pg/mL; (Table 9, donor 28099) 3 pg/mL; (Table 24, donor 28234) 23 pg/mL; (Table 24, donor 28235) 86 pg/mL. In addition, the IFN-γ (Table 24, donor 28236) was 247 pg/mL and the IFN-γ (Table 24, donor 28237) was 2076 pg/mL. Besides, the IFN-α mean came out at 36 pg/mL (Table 9, mean of donors) and 35 pg/mL under setting [1]. The IFN-γ mean is, setting by setting: (Table 9, mean of donors) 1 pg/mL; under setting [1], 608 pg/mL.

“5′-TCGTCGA-3′-HEG-5′-AACGTTC-3′-HEG-5′-AGATGAT-3′ [Compound C-54]”: the IFN-α is, setting by setting: (Table 13, donor 28156) 8 pg/mL; (Table 13, donor 28157) 96 pg/mL; (Table 13, donor 28158) 8 pg/mL; (Table 13, donor 28159) 13 pg/mL. Moreover, the IFN-γ was determined as 297 pg/mL (Table 13, donor 28156); 378 pg/mL (Table 13, donor 28157); 88 pg/mL (Table 13, donor 28158); 218 pg/mL (Table 13, donor 28159). Besides, the IFN-α mean (Table 13, mean of donors) is 31 pg/mL. For the setting “Table 13, mean of donors”, the IFN-γ mean was determined as 245 pg/mL.

Consider “5′-TCGTCGA-3′-HEG-5′-AACGTTC-3′-HEG-5′-TCGTCGA-3′ [Compound C-55]”, for which the IFN-α runs as follows: (Table 13, donor 28156) 9 pg/mL; (Table 13, donor 28157) 5 pg/mL; (Table 13, donor 28158) 63 pg/mL; (Table 13, donor 28159) 3 pg/mL. Further, the IFN-γ runs as follows: (Table 13, donor 28156) 511 pg/mL; (Table 13, donor 28157) 566 pg/mL; (Table 13, donor 28158) 55 pg/mL; (Table 13, donor 28159) 186 pg/mL. This substance also had an IFN-α mean (Table 13, mean of donors) of 20 pg/mL. The substance also displayed an IFN-γ mean (Table 13, mean of donors) of 329 pg/mL.

As to “5′-TCGTCGA-3′-HEG-5′-ACGTTCG-3′-HEG-5′-GGGGGG-3′ [Compound C-49]”, the IFN-α was found to be 30 pg/mL (Table 11, donor 28042); 8 pg/mL (Table 11, donor 28043); 100 pg/mL (Table 11, donor 28044); 88 pg/mL (Table 11, donor 28045). Also, the IFN-γ reads like this: (Table 11, donor 28042) 367 pg/mL; (Table 11, donor 28043) 433 pg/mL; (Table 11, donor 28044) 767 pg/mL; (Table 11, donor 28045) 353 pg/mL. The substance further came in with an IFN-α mean (Table 11, mean of donors) of 57 pg/mL. The substance further registered an IFN-γ mean (Table 11, mean of donors) of 480 pg/mL.

“5′-TCGTCGA-3′-HEG-5′-AGATGAT-3′-HEG-5′-ACGTTCG-3′ [Compound C-56]”: the “immunomodulatory activity (IFN-γ / IFN-α secretion), in words” value is on record as “most active CICs”. For the setting “Table 13, donor 28156”, this substance registered an IFN-α of 98 pg/mL and an IFN-γ of 1223 pg/mL. For the setting “Table 13, donor 28157”, this substance came in with an IFN-α of 415 pg/mL and an IFN-γ of 543 pg/mL. Under “Table 13, donor 28158”, this substance displayed an IFN-α of 57 pg/mL and an IFN-γ of 203 pg/mL. Where the note is “Table 13, donor 28159”, this substance displayed an IFN-α of 131 pg/mL and an IFN-γ of 563 pg/mL. Also, for the setting “Table 13, mean of donors”, the IFN-α mean amounted to 175 pg/mL and the IFN-γ mean worked out at 633 pg/mL.

Regarding “5′-TCGTCGA-3′-HEG-5′-TCGTCGA-3′ [Compound C-39]”, the “immunomodulatory activity (IFN-γ / IFN-α secretion), in words” value is reported as “active when used alone”. For the same substance, for the setting “Table 10, donor 28042”, the IFN-α turned out to be 31 pg/mL and the IFN-γ came out at 343 pg/mL. Also, for the setting “Table 10, donor 28043”, the IFN-α came out at 187 pg/mL and the IFN-γ came to 488 pg/mL. Under “Table 10, donor 28044”, this substance yielded an IFN-α of 46 pg/mL and an IFN-γ of 281 pg/mL. For the setting “Table 10, donor 28045”, this substance showed an IFN-α of 36 pg/mL and an IFN-γ of 137 pg/mL. Further, under “Table 10, mean of donors”, the IFN-α mean amounted to 75 pg/mL and the IFN-γ mean stood at 312 pg/mL. Further, under “donor 110, Table 14”, the “IFN-α” value worked out at 674 pg/mL and the “IFN-γ” value was found to be 604 pg/mL. Where the note is “donor 112, Table 14”, the “IFN-α” value is 26 pg/mL and the “IFN-γ” value is 116 pg/mL. Moreover, where the note is “donor 119, Table 14”, the “IFN-α” value was 444 pg/mL and the “IFN-γ” value is 108 pg/mL. For the same substance, for the setting “donor 120, Table 14”, the “IFN-α” value was 250 pg/mL and the “IFN-γ” value came to 32 pg/mL. Moreover, the “activity when formulated with cPLGA, in words” value (formulated with cPLGA) is given as “significant activity when formulated with cPLGA”. Further, for the setting “Table 14”, the “IFN-α (pg/ml) mean” value is 349 pg/mL and the “IFN-γ (pg/ml) mean” value stood at 215 pg/mL.

In the case of “5′-TCGTCGT-3′-HEG-5′-TCGTCGT-3′-HEG-5′-TCGTCGT-3′ [Compound C-42]”, the IFN-α is, setting by setting: (Table 10, donor 28042) 0 pg/mL; (Table 10, donor 28043) 29 pg/mL; (Table 10, donor 28044) 24 pg/mL; (Table 10, donor 28045) 0 pg/mL; (donor 110, Table 14) 250 pg/mL; (donor 112, Table 14) 26 pg/mL. The “IFN-α” value reads like this: (donor 119, Table 14) 156 pg/mL; (donor 120, Table 14) 36 pg/mL. The IFN-γ came out at 198 pg/mL (Table 10, donor 28042); 1067 pg/mL (Table 10, donor 28043); 4000 pg/mL (Table 10, donor 28044); 37 pg/mL (Table 10, donor 28045); 1508 pg/mL (donor 110, Table 14); 204 pg/mL (donor 112, Table 14). The “IFN-γ” value is, setting by setting: (donor 119, Table 14) 56 pg/mL; (donor 120, Table 14) 56 pg/mL. Further, where the note is “Table 10, mean of donors”, the IFN-α mean turned out to be 13 pg/mL. The same substance returned an IFN-γ mean (Table 10, mean of donors) of 1326 pg/mL. Where the note is “Table 14”, the “IFN-α (pg/ml) mean” value was 117 pg/mL. Moreover, where the note is “Table 14”, the “IFN-γ (pg/ml) mean” value came out at 456 pg/mL.

“5′-TCGTCGT-3′-HEG-5′-TGTCGTT-3′-HEG-5′-TGTCGTT-3′ [Compound C-47]”: the IFN-α reads like this: (Table 10, donor 28042) 20 pg/mL; (Table 10, donor 28043) 0 pg/mL; (Table 10, donor 28044) 0 pg/mL; (Table 10, donor 28045) 0 pg/mL. This substance also displayed an IFN-γ (Table 10, donor 28042) of 112 pg/mL; an IFN-γ (Table 10, donor 28043) of 537 pg/mL; an IFN-γ (Table 10, donor 28044) of 142 pg/mL; an IFN-γ (Table 10, donor 28045) of 17 pg/mL. The IFN-α mean (Table 10, mean of donors) was determined as 5 pg/mL. For the same substance, the IFN-γ mean (Table 10, mean of donors) came out at 202 pg/mL.

For the substance “5′-TCGTTTT-3′-HEG-5′-TCGTTTT-3′-HEG-5′-TCGTTTT-3′ [Compound C-41]”, the IFN-α (Table 10, donor 28042) came to 0 pg/mL; the IFN-α (Table 10, donor 28043) is 3 pg/mL; the IFN-α (Table 10, donor 28044) is 23 pg/mL; the IFN-α (Table 10, donor 28045) stood at 0 pg/mL; the “IFN-α” value (donor 110, Table 14) turned out to be 58 pg/mL; the “IFN-α” value (donor 112, Table 14) is 2 pg/mL. The “IFN-α” value reads like this: (donor 119, Table 14) 182 pg/mL; (donor 120, Table 14) 6 pg/mL. For the same substance, the IFN-γ reads like this: (Table 10, donor 28042) 174 pg/mL; (Table 10, donor 28043) 1075 pg/mL; (Table 10, donor 28044) 841 pg/mL; (Table 10, donor 28045) 45 pg/mL; (donor 110, Table 14) 512 pg/mL; (donor 112, Table 14) 100 pg/mL. Also, the “IFN-γ” value is, setting by setting: (donor 119, Table 14) 32 pg/mL; (donor 120, Table 14) 32 pg/mL. The IFN-α mean (Table 10, mean of donors) turned out to be 7 pg/mL. This substance gave an IFN-γ mean (Table 10, mean of donors) of 534 pg/mL. Also, the “IFN-α (pg/ml) mean” value (Table 14) stood at 62 pg/mL. Moreover, the “IFN-γ (pg/ml) mean” value (Table 14) is 169 pg/mL.

“5′-TGACTGTGA-3′-HEG-5′-ACGTTCG-3′-HEG-5′-AGATGAT-3′ [Compound C-53]” had an IFN-α (Table 11, donor 28042) of 0 pg/mL; an IFN-α (Table 11, donor 28043) of 0 pg/mL; an IFN-α (Table 11, donor 28044) of 0 pg/mL; an IFN-α (Table 11, donor 28045) of 5 pg/mL. For the same substance, the IFN-γ turned out to be 39 pg/mL (Table 11, donor 28042); 27 pg/mL (Table 11, donor 28043); 38 pg/mL (Table 11, donor 28044); 26 pg/mL (Table 11, donor 28045). Under “Table 11, mean of donors”, this substance had an IFN-α mean of 1 pg/mL. Under “Table 11, mean of donors”, this substance displayed an IFN-γ mean of 32 pg/mL.

“5′-TGACTGTGAAGGTTAGAGATGA-3′ (SEQ ID NO: 136) (listed as DNA, chemistry not fully specified) [Compound P-8, reference compound]”: the IFN-α (Table 13, donor 28156) stood at 16 pg/mL; the IFN-α (Table 13, donor 28157) worked out at 9 pg/mL; the IFN-α (Table 13, donor 28158) amounted to 24 pg/mL; the IFN-α (Table 13, donor 28159) was 8 pg/mL. Moreover, the IFN-γ reads like this: (Table 13, donor 28156) 255 pg/mL; (Table 13, donor 28157) 20 pg/mL; (Table 13, donor 28158) 31 pg/mL; (Table 13, donor 28159) 31 pg/mL. For the same substance, the IFN-α mean (Table 13, mean of donors) was determined as 14 pg/mL. The IFN-γ mean (Table 13, mean of donors) stood at 84 pg/mL.

As to “5′-TGCTGCA-3′-C3-5′-AGCTTGC-3′-C3-5′-AGATGAT-3′ (No CG) [Compound C-86]”, the “IFN-a” value reads like this: (donor 28185, Table 15) 7 pg/mL; (donor 28186, Table 15) 4 pg/mL; (donor 28187, Table 15) 4 pg/mL; (donor 28188, Table 15) 31 pg/mL. The “IFN-g” value runs as follows: (donor 28185, Table 15) 1 pg/mL; (donor 28186, Table 15) 4 pg/mL; (donor 28187, Table 15) 30 pg/mL; (donor 28188, Table 15) 5 pg/mL. Also, under setting [2], the “IFN-a (pg/ml) mean” value amounted to 11 pg/mL. Further, the “IFN-g (pg/ml) mean” value under setting [2] came out at 10 pg/mL. Under “mean ×2, Table 15”, the “IFN-a (pg/ml) ×2” value was determined as 22 pg/mL. Further, the “IFN-g (pg/ml) ×4” value (mean ×4, Table 15) was found to be 40 pg/mL.
